Series [1] deals with all bacterial strains tested. Put plainly: Antibacterial MIC, summary over the panel. Type of series: cell-based. The method, then: MIC values were determined against a variety of Gram-positive (strains A-D) and Gram-negative (E-J) bacterial and mycobacterial (K) strains using the double-dilution method, as previously published. Preliminary screening was performed using 500 μM of each compound.

The subject of series [2] is K. pneumoniae ATCC 27736. Put plainly: Antibacterial MIC, double-dilution method. Type of series: cell-based. Particulars: Klebsiella pneumoniae, ATCC27736. The method in brief: (§1)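 The lowest inhibitory concentration is reported from a twofold dilution series, after an initial single-concentration screen with every compound at 500 μM.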
In series [3] the test system is E. coli MC1061. Put plainly: Antibacterial MIC, double-dilution method. Type of series: cell-based. Particulars: Escherichia coli, strain G, Gram-negative, read-out: MIC. The method in brief: as §1
Series [4] has as its system S. enterica ATCC 14028. In words: Antibacterial MIC, double-dilution method. Type of series: cell-based. The note with it: Salmonella enterica, ATCC14028, strain J, Gram-negative, read-out: MIC. The method in brief:
as §1

For series [5], the system named is A. baumannii ATCC 19606. In words: Antibacterial MIC, double-dilution method. Particulars: Acinetobacter baumannii, ATCC19606. Type of series: cell-based. The method in brief:
as §1

The test system of series [6] is L. monocytogenes ATCC 19115. Put plainly: Antibacterial MIC, double-dilution method. Particulars: Listeria monocytogenes, ATCC19115, strain B, Gram-positive, read-out: MIC. It is filed as cell-based. The method in brief: as §1
In series [7] the test system is E. cloacae ATCC 13047. Put plainly: Antibacterial MIC, double-dilution method. Type of series: cell-based. The note with it: Enterobacter cloacae, ATCC13047. The method in brief: as §1
Series [8] relates to VRE. Put plainly: Antibacterial MIC, double-dilution method. Type of series: cell-based. Particulars: Enterococcus, strain D, Gram-positive, read-out: MIC. The essentials:
as §1

The test system of series [9] is P. aeruginosa ATCC 27853. Put plainly: Antibacterial MIC, double-dilution method. Type of series: cell-based. The note with it: Pseudomonas aeruginosa, ATCC27853. The essentials:
as §1

The test system of series [10] is MRSA. Put plainly: Antibacterial MIC, double-dilution method. It is filed as cell-based. The note with it: Staphylococcus aureus, strain C, Gram-positive, read-out: MIC. The essentials:
as §1

The test system of series [11] is M. smegmatis MC2-155. Put plainly: Antibacterial MIC, double-dilution method. Type of series: cell-based. The note with it: Mycolicibacterium smegmatis, MC2155, strain K, mycobacterial, read-out: MIC. The method in brief: as §1
The subject of series [12] is B. subtilis 168. In words: Antibacterial MIC, double-dilution method. Type of series: cell-based. Particulars: Bacillus subtilis, strain A, Gram-positive. The essentials:
as §1

Series [13] relates to C. albicans ATCC 2876. In words: Antifungal MIC, CLSI M27-A3 microbroth dilution. The note with it: Candida albicans, ATCC2876, C. albicans ATCC 2876, susceptible to FLC, ITC, and VOR, read-out: MIC. It is filed as cell-based, Candida albicans. The method, then:
(§2) In vitro MIC testing was performed according to the CLSI M27-A3 standard microbroth dilution methodology for the susceptibility testing of yeasts with minor modifications.
In general terms: In broth dilution the organism is exposed to a series of concentrations in liquid medium.

Series [14] has as its system C. albicans ATCC 90819. In words: Antifungal MIC, CLSI M27-A3 microbroth dilution. It is filed as cell-based, Candida albicans. Particulars: Candida albicans, ATCC90819, C. albicans ATCC 90819, resistant to FLC, ITC, and VOR, read-out: MIC. The procedure: as §2
In series [15] the test system is C. albicans ATCC 10231. Put plainly: Antifungal MIC, CLSI M27-A3 microbroth dilution. Type of series: cell-based, Candida albicans. The note with it: Candida albicans, ATCC10231, C. albicans ATCC 10231, resistant to FLC, ITC, and VOR, read-out: MIC. The method, then: as §2
Series [16] deals with C. albicans ATCC 1003. Put plainly: Antifungal MIC, CLSI M27-A3 microbroth dilution. Type of series: cell-based, Candida albicans. The note with it: Candida albicans, ATCC1003, read-out: MIC. The procedure: as §2
Series [17] has as its system C. albicans ATCC 1237. Put plainly: Antifungal MIC, CLSI M27-A3 microbroth dilution. It is filed as cell-based, Candida albicans. The note with it: Candida albicans, ATCC1237, C. albicans ATCC 1237, resistant to FLC, ITC, and VOR, read-out: MIC. The method, then: as §2
Series [18] concerns C. albicans ATCC 2310. In words: Antifungal MIC, CLSI M27-A3 microbroth dilution. Particulars: Candida albicans, ATCC2310, C. albicans ATCC 2310, susceptible to FLC, ITC, and VOR, read-out: MIC. It is filed as cell-based, Candida albicans. The procedure:
as §2

Series [19] has as its system C. albicans ATCC 64124. In words: Antifungal MIC, CLSI M27-A3 microbroth dilution. Type of series: cell-based, Candida albicans. The note with it: Candida albicans, ATCC64124, C. albicans ATCC 64124, resistant to FLC, ITC, and VOR, read-out: MIC. The procedure:
as §2

For series [20], the system named is MRSA (strain C). It is filed as cell-based, Staphylococcus aureus. Particulars: after 15 serial passages at sub-inhibitory concentrations. The procedure: (§3) The bacteria were grown in MH broth at 37° C. for these experiments. […] The resulting cultures were diluted 1:1000 and grown until the culture reached ˜300,000 cfu/mL. That culture was then further diluted 1:1000 and used to determine the next round of MIC values.

In series [21] the test system is L. monocytogenes ATCC 19115 (strain B). It is filed as cell-based, Listeria monocytogenes. Particulars: after 15 serial passages at sub-inhibitory concentrations. The procedure:
as §3

Series [22] relates to VRE (strain D). Type of series: cell-based, enterococcus. Particulars: after 15 serial passages at sub-inhibitory concentrations. The procedure:
as §3

Series [23] relates to P. aeruginosa ATCC 27853 (strain I). Type of series: cell-based. The note with it: after 15 serial passages at sub-inhibitory concentrations. The procedure: as §3
Series [24] in a line: Mammalian cell cytotoxicity, resazurin. It is filed as cell-based. The note with it: human. The method, then: Another important aspect to consider during the development of antimicrobial agents is their potential toxicity towards mammalian cells. Having established the potent antimicrobial activities of the bis(N-amidino)hydrazones and N-amidino-N′-aryl-bishydrazones against bacteria and fungi, the toxicity profile of these compounds was determined against two mammalian cell lines (A549 and BEAS-2B; FIGS. 4A-B). […]. Cytotoxicity assays were performed as previously described. The human lung carcinoma epithelial cells A549 and the normal human bronchial epithelial cells BEAS-2B were grown in F12-K and DMEM medium containing 10% fetal bovine serum (FBS) and 1% antibiotics, respectively. The confluent cells were trypsinized with 0.05%-trypsin-0.53 mM EDTA, centrifuged (1,200 rpm) and resuspended in fresh medium (F12-K or DMEM). The cells were seeded into 96-well microtiter plates at a density of 3,000 cells/well and were grown overnight. […] Triton X-100® (0.5%, v/v) gave complete loss of cell viability and was used as the positive control. The percent cell survival was calculated as: (test value/control value)×100, where control value represents cells+resazurin−drug, and test value represents cells+resazurin+drug.

Setting [25] is: strain H, Gram-negative, range 0.5 to 500 μM, read-out: MIC.
[26] abbreviates: strain E, Gram-negative, range 0.5 to 500 μM, read-out: MIC.
The mark [27] stands for this setting: strain F, Gram-negative, range 0.5 to 500 μM, read-out: MIC.
Where [28] appears, read: strain I, Gram-negative, range 0.5 to 500 μM, read-out: MIC.

The source of these data is patent US10173968B2, “Bishydrazone-based antifungal agents” (University of Kentucky Research Foundation, priority 2016, dated 2019).

Where two headings read alike, the source gives them in different places.

One may read the MIC as the lowest concentration that inhibits growth of the organism. In the case of `CC1(C)S[C@@H]2[C@H](NC(=O)[C@H](N)c3ccccc3)C(=O)N2[C@H]1C(=O)O` [AMP, ampicillin, reference compound], the MIC in series [1] (read-out: MIC, span over all bacterial strains tested) was at least 250 µM; in series [2], over 92.8 µg/mL; in series [2] (setting [25]), over 250 µM; in [3] (converted from μM), over 92.8 µg/mL; in series [3] (range 0.5 to 500 μM), over 250 µM; in series [4] (converted from μM), 92.8 µg/mL. For the same compound, the MIC was 250 µM in [4] (range 0.5 to 500 μM); over 92.8 µg/mL in [5]; over 250 µM in [5] (setting [26]); 92.8 µg/mL in [6] (converted from μM); 250 µM in series [6] (range 0.5 to 500 μM); over 92.8 µg/mL in [7]. The MIC in [7] (setting [27]) is over 250 µM; in series [8] (converted from μM), 92.8 µg/mL; in [8] (range 0.5 to 500 μM), 250 µM; in series [9], over 92.8 µg/mL; in series [9] (setting [28]) it was over 250 µM; in [10] (converted from μM), 92.8 µg/mL. Besides, the MIC in [10] (range 0.5 to 500 μM) was 250 µM; in series [11] (converted from μM), over 92.8 µg/mL; in [11] (range 0.5 to 500 μM), over 250 µM; in series [12] (converted from μM), over 92.8 µg/mL; in series [12] (range 0.5 to 500 μM) it was over 250 µM.
On to `C/C(=N\NC(=N)N)c1ccc(CCc2ccc(/C(C)=N/NC(=N)N)cc2)cc1.Cl.Cl` [Compound 4D, (2E,2′E)-2,2′-((Ethane-1,2-diylbis(4,1-phenylene))bis(ethan-1-yl-1-ylidene))bis(hydrazine-1-carboximidamide) dihydrochloride], for which the MIC in series [13] (converted from μg/mL) turned out to be 8.6 µM; in series [13] it was 3.9 µg/mL; in series [14] (converted from μg/mL), 17.3 µM; in series [14], 7.8 µg/mL; in [15] (converted from μg/mL) it was 17.3 µM; in [15], 7.8 µg/mL. The MIC in [16] (C. albicans ATCC 1003, converted from μg/mL) was 34.6 µM; in series [16], 15.6 µg/mL; in series [17] (converted from μg/mL), 34.6 µM; in series [17], 15.6 µg/mL; in series [18] (converted from μg/mL) it was 69.3 µM; in series [18], 31.3 µg/mL. Besides, the MIC in series [19] (converted from μg/mL) was over 69.3 µM; in [19] it was over 31.3 µg/mL; in series [2] (strain H, Gram-negative, converted from μM, read-out: MIC) it was over 226 µg/mL; in series [2] (setting [25]), over 500 µM; in series [3] (converted from μM), over 226 µg/mL; in series [3] (range 0.5 to 500 μM) it was over 500 µM. For the same compound, the MIC was over 226 µg/mL in series [4] (converted from μM); over 500 µM in series [4] (range 0.5 to 500 μM); over 226 µg/mL in series [5] (strain E, Gram-negative, converted from μM, read-out: MIC); over 500 µM in series [5] (setting [26]); 0.5 µg/mL in [6] (converted from μM); 1 µM in [6] (range 0.5 to 500 μM). Also, the MIC in series [7] (strain F, Gram-negative, converted from μM, read-out: MIC) was over 226 µg/mL; in [7] (setting [27]) it was over 500 µM; in [8] (converted from μM) it was 0.5 µg/mL; in [8] (range 0.5 to 500 μM), 1 µM; in series [9] (strain I, Gram-negative, converted from μM, read-out: MIC), over 226 µg/mL; in series [9] (setting [28]), over 500 µM. The MIC is 0.5 to 0.9 µg/mL in [10] (converted from μM); 1 to 2 µM in series [10] (range 0.5 to 500 μM); 0.5 µg/mL in [11] (converted from μM); 1 µM in series [11] (range 0.5 to 500 μM); over 226 µg/mL in series [12] (converted from μM); over 500 µM in series [12] (range 0.5 to 500 μM). In addition, the “increase in relative MIC values” in [20] amounted to 16 fold; in series [21], 8 fold; in [22], 16 fold; in series [23] it was 4 fold.
As usually defined, the IC50 is the concentration needed to halve the response being measured. Read a low IC50 as higher potency. A word on the melting point: it is the temperature of the solid-liquid transition. With `Cl.N=C(N)N/N=C/c1ccc(-c2ccc(/C=N/Nc3ccc(F)cc3)cc2)cc1` [Compound 7Ac, (E)-2-((4′-((E)-(2-(4-Fluorophenyl)hydrazono)methyl)-[1,1′-biphenyl]-4-yl)methylene)hydrazine-1-carboximidamide monohydrochloride], the melting point is over 380 °C. In series [24] (BEAS-2B), the IC50 at 24 h fell in the range of 7.8 to 15.6 µg/mL. Also, the IC50 at 24 h in series [24] (A549, 24 h) lay in the range of 7.8 to 15.6 µg/mL. In addition, in series [1] (read-out: antibacterial MIC values), the minimum inhibitory concentration (MIC) was in the range of 0.4 to 3.3 µg/mL.
